According to patent publication US20260274833A1 (NiKang Therapeutics, Inc., priority 2022, published 2026):

Biological target: T1, CDK2 (Homo sapiens, UniProt P24941)
T1 construct: endogenous in cells; host or cells: OVCAR3 cells
Test: Phospho-RB measurement in OVCAR3 cells (HTRF phospho-RB cellular kit)
Type: cell-based
Conditions: inhibition of RB phosphorylation at S807/811 (HTRF, TR-FRET ratio 665/620), 24 h compound treatment, 0.3 to 10,000 nM
In short: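 IC50 came from a four-parameter logistic fit of the DMSO-normalized TR-FRET ratio (665/620 nm). That ratio reflects RB phosphorylation at S807/811, read with an HTRF antibody pair 4 h after adding lysate at room temperature.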

SMILES | IC50
CC(C)(C)c1nc(-c2cccc(NS(=O)(=O)N3CCc4c(C#N)cccc43)c2F)c(-c2ccnc(NC3CCN(S(=O)(=O)N4CCNCC4)CC3)n2)s1 [Example 124, N-(3-(2-(tert-butyl)-5-(2-((1-(piperazin-1-ylsulfonyl)piperidin-4-yl)amino)-pyrimidin-4-yl)thiazol-4-yl)-2-fluoro-phenyl)-4-cyanoindoline-1-sulfonamide] | 151 nM
CN1CCN(S(=O)(=O)N2CCC(Nc3nccc(-c4sc(C(C)(C)C)nc4-c4cccc(NS(=O)(=O)N5CCc6c(C#N)cccc65)c4F)n3)CC2)CC1 [Example 125, N-(3-(2-(tert-butyl)-5-(2-((1-((4-methyl-piperazin-1-yl)sulfonyl)piperidin-4-yl)amino)-pyrimidin-4-yl)thiazol-4-yl)-2-fluorophenyl)-4-cyanoindoline-1-sulfonamide] | 204 nM
CC(C)(C)c1nc(-c2cccc(NS(=O)(=O)N3Cc4ccncc4C3)c2F)c(-c2ccnc(NC3CCN(S(=O)(=O)N4CCNCC4)CC3)n2)s1 [Example 126, N-(3-(2-(tert-butyl)-5-(2-((1-(piperazin-1-ylsulfonyl)piperidin-4-yl)amino)-pyrimidin-4-yl)thiazol-4-yl)-2-fluorophenyl)-1,3-dihydro-2H-pyrrolo[3,4-c] pyridine-2-sulfonamide] | 366 nM
CN1CCN(S(=O)(=O)N2CCC(Nc3nccc(-c4sc(C(C)(C)C)nc4-c4cccc(NS(=O)(=O)N5Cc6cccnc6C5)c4F)n3)CC2)CC1 [Example 127, N-(3-(2-(tert-butyl)-5-(2-((1-((4-methyl-piperazin-1-yl)sulfonyl)piperidin-4-yl)amino)-pyrimidin-4-yl)thiazol-4-yl)-2-fluorophenyl)-5,7-dihydro-6H-pyrrolo[3,4-b] pyridine-6-sulfonamide] | 208 nM
CN1CCN(S(=O)(=O)N2CCC(Nc3nccc(-c4sc(C(C)(C)C)nc4-c4cccc(NS(=O)(=O)N5Cc6ccncc6C5)c4F)n3)CC2)CC1 [Example 128, N-(3-(2-(tert-butyl)-5-(2-((1-((4-methylpiperazin-1-yl)sulfonyl)piperidin-4.yl)-amino)pyrimidin~4-yl)thiazol-4-yl)-2-fluorophenyl)-1,3-dihydro-2H-pyrrolo[3,4-c]-pyridine-2-sulfonamide] | 162 nM
CC(C)(C)c1nc(-c2cccc(NS(=O)(=O)N3CCNc4ccccc43)c2F)c(-c2ccnc(NC3CCN(S(=O)(=O)N4CCNCC4)CC3)n2)s1 [Example 129, N-(3-(2-(tert-butyl)-5-(2-((1-(piperazin-1-ylsulfonyl)piperidin-4-yl)amino)-pyrimidin-4-yl)thiazol-4-yl)-2-fluoro-phenyl)-3,4-dihydroquinoxaline-1(2H)-sulfonamide] | 328 nM
C[C@@H]1c2ccccc2CN1S(=O)(=O)Nc1cccc(-c2nc(C(C)(C)C)sc2-c2ccnc(NC3CCN(S(C)(=O)=O)CC3)n2)c1F [Example 130, (R)-N-(3-(2-(tert-butyl)-5-(2-((1-(methyl-sulfonyl)piperidin-4-yl)amino)-pyrimidin-4-yl)thiazol-4-yl)-2-fluoro-phenyl)-1-methyliso-indoline-2-sulfonamide] | 268 nM
C[C@H]1c2ccccc2CN1S(=O)(=O)Nc1cccc(-c2nc(C(C)(C)C)sc2-c2ccnc(NC3CCN(S(C)(=O)=O)CC3)n2)c1F [Example 131, (S)-N-(3-(2-(tert-butyl)-5-(2-((1-(methyl-sulfonyl)piperidin-4-yl)amino)pyrimidin-4-yl)thiazol-4-yl)-2-fluoro-phenyl)-1-methyliso-indoline-2-sulfonamide] | 160 nM
CC(C)(C)c1nc(-c2cccc(NS(=O)(=O)N3Cc4cccnc4C3)c2F)c(-c2ccnc(NC3CCN(S(=O)(=O)N4CCNCC4)CC3)n2)s1 [Example 132, N-(3-(2-(tert-butyl)-5-(2-((1-(piperazin-1-ylsulfonyl)piperidin-4-yl)amino)-pyrimidin-4-yl)thiazol-4-yl)-2-fluoro-phenyl)-5,7-dihydro-6H-pyrrolo[3,4-b]-pyridine-6-sulfonamide] | 310 nM
CN(C)Cc1cccc2c1CCN2S(=O)(=O)Nc1cccc(-c2nc(C(C)(C)C)sc2-c2ccnc(NC3CCN(S(C)(=O)=O)CC3)n2)c1F [Example 133, N-(3-(2-(tert-butyl)-5-(2-((1-(methylsulfonyl)-piperidin-4-yl)amino)-pyrimidin-4-yl)thiazol-4-yl)-2-fluoro-phenyl)-4-((dimethylamino)methyl)-indoline-1-sulfonamide] | 331 nM
CNCc1cccc2c1CCN2S(=O)(=O)Nc1cccc(-c2nc(C(C)(C)C)sc2-c2ccnc(NC3CCN(S(C)(=O)=O)CC3)n2)c1F [Example 134, N-(3-(2-(tert-butyl)-5-(2-((1-(methylsulfonyl)-piperidin-4-yl)amino)-pyriidin-4-yl)thiazol-4-yl)-2-fluoro-phenyl)-4-((methylamino)methyl)-indoline-1-sulfonamide] | 589 nM
CN(C)CCN(C)S(=O)(=O)N1CCC(Nc2nccc(-c3sc(C(C)(C)C)nc3-c3cccc(NS(=O)(=O)N(C)C)c3F)n2)CC1 [Example 135, 4-((4-(2-(tert-butyl)-4-(3-((N,N-dimethyl-sulfamoyl)amino)-2-fluoro-phenyl)thiazol-5-yl)pyrimidin-2-yl)amino)-N-(2-(dimethyl-amino)ethyl)-N-methylpiperidine-1-sulfonamide] | 474 nM
CC(C)(C)c1nc(-c2cccc(NS(=O)(=O)N3CCOc4ccccc43)c2F)c(-c2ccnc(NC3CCN(S(=O)(=O)N4CCNCC4)CC3)n2)s1 [Example 136, N-(3-(2-(tert-butyl)-5-(2-((1-(piperazin-1-ylsulfonyl)piperidin-4-yl)amino)-pyrimidin-4-yl)thiazol-4-yl)-2-fluorophenyl)-2,3-dihydro-4H-benzo[b][1,4] oxazine-4-sulfonamide] | 1490 nM
CN1CCN(S(=O)(=O)Nc2cccc(-c3nc(C(C)(C)C)sc3-c3ccnc(NC4CCN(S(C)(=O)=O)CC4)n3)c2F)Cc2ccccc21 [Example 137, N-(3-(2-(tert-butyl)-5-(2-((1-(methylsulfonyl)-piperidin-4-yl)amino)-pyrimidin-4-yl)thiazol-4-yl)-2-fluoro-phenyl)-1-methyl-1,2,3,5-tetrahydro-4H-benzo[e][1,4] diazepine-4-sulfonamide] | 286 nM
CN1CCN(S(=O)(=O)N2CCC(Nc3nccc(-c4sc(C(C)(C)C)nc4-c4cccc(NS(=O)(=O)N5CCNc6ccccc6C5)c4F)n3)CC2)CC1 [Example 138, N-(3-(2-(tert-butyl)-5-(2-((1-((4-methylpiperazin-1-yl)sulfonyl)piperidin-4-yl)amino)pyrimidin-4-yl)thiazol-4-yl)-2~fluorophenyl)-1,2,3,5-tetrahydro-4H-benzo[e][1,4] diazepine-4-sulfonamide] | 396 nM
CN(C)CCN(C)S(=O)(=O)N1CCC(Nc2nccc(-c3sc(C(C)(C)C)nc3-c3cccc(NS(=O)(=O)N4CCNc5ccccc5C4)c3F)n2)CC1 [Example 139, N-(3-(2-(tert-butyl)-5-(2-((1-(N-(2-(dimethyl-amino)ethyl)-N-methyl-sulfamoyl)piperidin-4-yl)amino)-pyrimidin-4-yl)thiazol-4-yl)-2-fluoro-phenyl)-1,2,3,5-tetrahydro-4H-benzo[e][1,4] diazepine-4-sulfonamide] | 291 nM
C[C@@H]1Cc2ccccc2N1S(=O)(=O)Nc1cccc(-c2nc(C(C)(C)C)sc2-c2ccnc(NC3CCN(S(=O)(=O)N4CCNCC4)CC3)n2)c1F [Example 140, (R)-N-(3-(2-(tert-butyl)-5-(2-((1-(piperazin-1-ylsulfonyl)piperidin-4-yl)amino)pyrimidin-4-yl)thiazol-4-yl)-2-fluorophenyl)-2-methyl-indoline-1-sulfonamide] | 622 nM
CC(C)(C)c1nc(-c2cccc(NS(=O)(=O)N3CCc4ncccc43)c2F)c(-c2ccnc(NC3CCN(S(C)(=O)=O)CC3)n2)s1 [Example 141, N-(3-(2-(tert-butyl)-5-(2-((1-(methylsulfonyl)-piperidin-4-yl)amino)-pyrimidin-4-yl)thiazol-4-yl)-2-fluoro-phenyl)-2,3-dihydro-1H-pyrrolo [3,2-b]-pyridine-1-sulfonamide] | 291 nM
CN(C)Cc1ccc2c(c1)N(S(=O)(=O)Nc1cccc(-c3nc(C(C)(C)C)sc3-c3ccnc(NC4CCN(S(C)(=O)=O)CC4)n3)c1F)CC2 [Example 142, N-(3-(2-(tert-butyl)-5-(2-((1-(methylsulfonyl)-piperidin-4-yl)amino)-pyrimidin-4-yl)thiazol-4-yl)-2-fluoro-phenyl)-6-((dimethylamino)-methyl)-indoline-1-sulfonamide] | 341 nM
COc1cccc2c1CN(S(=O)(=O)Nc1cccc(-c3nc(C(C)(C)C)sc3-c3ccnc(NC4CCN(S(=O)(=O)N5CCNCC5)CC4)n3)c1F)C2 [Example 143, N-(3-(2-(tert-butyl)-S-(2-((1-(piperazin-1-ylsulfonyl)piperidin-4-yl)amino)-pyrimidin-4-yl)thiazol-4-yl)-2-fluoro-phenyl)-4-methoxy-isoindoline-2-sulfonamide] | 136 nM
CC(C)(C)c1nc(-c2cccc(NS(=O)(=O)N3Cc4ccc(F)cc4C3)c2F)c(-c2ccnc(NC3CCN(S(=O)(=O)N4CCNCC4)CC3)n2)s1 [Example 144, N-(3-(2-(tert-butyl)-5-(2-((1-(piperazin-1-ylsulfonyl)piperidin-4-yl)amino)-pyrimidin-4-yl)thiazol-4-yl)-2-fluoro-phenyl)-5-fluoro-isoindoline-2-sulfonamide] | 227 nM
CNC(=O)c1cccc2c1CN(S(=O)(=O)Nc1cccc(-c3nc(C(C)(C)C)sc3-c3ccnc(NC4CCN(S(C)(=O)=O)CC4)n3)c1F)C2 [Example 145, 2-(N-(3-(2-(tert-butyl)-5-(2-((1-(methyl-sulfonyl)piperidin-4-yl)amino)pyrimidin-4-yl)thiazol-4-yl)-2-fluorophenyl)-sulfamoyl)-N-methyliso-indoline-4-carboxamide] | 389 nM
